Assay [1] deals with T1, Proteasome subunit beta type-5 (Homo sapiens, UniProt P28074).
T1 sequence (P28074 whole entry): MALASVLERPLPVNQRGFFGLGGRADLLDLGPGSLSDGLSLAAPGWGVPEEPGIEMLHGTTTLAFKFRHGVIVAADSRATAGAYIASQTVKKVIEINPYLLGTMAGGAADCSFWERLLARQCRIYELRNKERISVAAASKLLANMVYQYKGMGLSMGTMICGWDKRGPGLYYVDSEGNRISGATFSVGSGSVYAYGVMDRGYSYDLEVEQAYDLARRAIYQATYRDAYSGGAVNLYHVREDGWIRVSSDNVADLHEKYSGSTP
Nature of the assay: IC50 Determination.

The target of assay [2] is T2, Proteasome subunit beta type-8 (Homo sapiens, UniProt P28062).
T2 sequence (P28062 whole entry): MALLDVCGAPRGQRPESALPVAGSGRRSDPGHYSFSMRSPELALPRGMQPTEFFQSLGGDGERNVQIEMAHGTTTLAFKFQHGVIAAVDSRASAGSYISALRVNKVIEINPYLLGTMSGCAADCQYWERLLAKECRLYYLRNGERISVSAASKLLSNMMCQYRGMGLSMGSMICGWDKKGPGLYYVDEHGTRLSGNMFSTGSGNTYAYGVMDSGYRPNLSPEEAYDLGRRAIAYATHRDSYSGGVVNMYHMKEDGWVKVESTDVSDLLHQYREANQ
The experiment in a line: IC50 Determination.

Data on seven molecules can be found in BindingDB's records for patent US20240043470 (Cornell University, 2024).

Take `O=C1CCc2cccc(c2)OCCCC[C@@H](C(=O)NCc2ccccc2F)NC(=O)[C@H](CC(=O)N2CCC[C@@H]2c2ccccc2)N1` [US20240043470, Compound 3-18]: the IC50 (usually the point on the concentration scale where inhibition reaches its midpoint) in assay [1] turned out to be 44.3 µM; in assay [2], 3 µM. As to `O=C(NC1Cc2cccc(c2)Oc2ccc(cc2)CC(C(=O)NCc2ccccc2F)NC(=O)C(CC(=O)N2CCC[C@@H]2c2ccccc2)NC1=O)c1ccccc1` (stereo partly specified) [US20240043470, Compound 2-07], the IC50 in assay [1] was more than 100 µM; in assay [2], 26.8 µM. Consider `CC(=O)N[C@H]1Cc2cccc(c2)Oc2ccc(cc2)C[C@@H](C(=O)NCc2ccccc2F)NC(=O)[C@H](CC(=O)N2CCC[C@@H]2c2ccccc2)NC1=O` [US20240043470, Compound 2-04], for which the figures for the IC50 in assay [1] and in assay [2] were 30.7 µM and 9.1 µM, respectively. For the molecule `CC(=O)NC1Cc2cccc(c2)Oc2ccc(cc2)CC(C(=O)NCc2ccccc2F)NC(=O)C(CC(=O)N2CCC[C@@H]2c2ccccc2)NC1=O` (stereo partly specified) [US20240043470, Compound 2-05], the IC50 in assay [1] came to 88.4 µM; in assay [2], 35.9 µM. Consider `O=C(N[C@H]1Cc2cccc(c2)Oc2ccc(cc2)C[C@@H](C(=O)NCc2ccccc2F)NC(=O)[C@H](CC(=O)N2CCC[C@@H]2c2ccccc2)NC1=O)c1ccccc1` [US20240043470, Compound 2-06], for which the IC50 in assay [2] was determined as 19.3 µM. On to `O=C1N[C@@H](CC(=O)N2CCCC2)C(=O)N[C@H](C(=O)NCc2cccc3ccccc23)CCCCCCCCC[C@H]1Cc1ccccc1` [US20240043470, Compound 4-03], for which 3.52 µM corresponded to half-maximal inhibition in assay [2] (IC50). In turn, `CC(=O)N[C@H]1CCCCOc2cccc(c2)C[C@@H](C(=O)NCC(F)(F)F)NC(=O)[C@H](CCc2ccccc2)NC1=O` [US20240043470, Compound 3-03] displayed an IC50 in assay [1] of 11.9 µM.
